Experiments:
Assay in all cases: In vitro Tat transport assay of pre-SufI into IMVs, NADH as energy source
[1] = system: E. coli Tat machinery (IMVs containing overproduced TatABC); assay type: biochemical, Escherichia coli; details: hit compound 100 μM
[2] = system: E. coli Tat machinery (IMVs containing overproduced TatABC); assay type: biochemical, Escherichia coli; details: out of 22 independent assays by three different people
Experimental: To directly test for inhibition of Tat transport, a gel-based in vitro Tat transport assay was performed using pre-SufI, an authentic Tat precursor protein [7]. In short, this assay consists of incubating a Tat substrate and a Δψ-generating energy source with inverted membrane vesicles (IMVs) containing overproduced TatABC, digesting remaining external protein with a protease, and then analyzing via SDS-PAGE. This assay was run twice using NADH and ATP (if warranted) as energy sources to generate the necessary Δψ. NADH generates a Δψ using respiratory proteins (i.e., the NADH dehydrogenase and cytochrome bo3 ubiquinol oxidase complexes) and ATP generates a Δψ by reversal of ATP synthase. A true Tat inhibitor would survive both assays. In contrast, a respiration inhibitor is expected to reduce Tat transport when only one of the two energy sources is used (except for an ionophore).
Fig 8 Effect of Hits from the Local HTS on In Vitro Tat Transport. (A) Tat transport assays of pre-SufI using NADH to generate a Δψ. Inverted membrane vesicles (IMVs; A280 = 5.0), the fluorescent substrate pre-SufI-IAC^Atto565 (90 nM), and NADH (4 mM) were incubated at 37°C for 30 min with DMSO (control) or with hit compound (20 μM). Samples were treated with the protease proteinase K, run on SDS-PAGE, and analyzed by in-gel fluorescence imaging. Assays were run in duplicate. Band intensity corresponds to the amount of protein transported into the IMV lumen. The following 7 compounds survived this screen: 1^JS, 51^JS, 55^JS, 111^JS, 181^JS, 202^JS, and 140^JS (boxed in red). (B) Tat transport assays of pre-SufI using ATP to generate a Δψ. All 7 compounds surviving the screen in (A) were tested using a Tat transport assay performed identically to those in (A) except that ATP (1 mM) was used in place of NADH. Compound 55^JS was eliminated by this assay—the other 6 compounds survived (boxed in red). (C) Chemical structure of compound 55^JS, N-(4,7-Dioxo-4,7-dihydro-2,1,3-benzoxadiazol-5-yl)acetamide.
Isolation of inverted membrane vesicles (IMVs), Western blot analyses and purification of pre-SufI-IAC were performed as described previously. Western blots were performed using rabbit anti-mCherry antibodies (1:10,000 dilution) in the presence of 0.1% Triton X-100 and 0.1% Tween 20. The pre-SufI-IAC protein was labeled with Atto565 maleimide, and the resultant fluorescent protein, pre-SufI-IAC^Atto565, was used as a substrate for the in vitro Tat transport assays (A280 = 5.0), as described previously. The presence of a Δψ was determined by measuring oxonol VI fluorescence in presence of Tat^+ IMVs (A280 = 0.5), as described previously, except that the translocation buffer lacked BSA. Steady-state fluorescence spectra and fluorescence intensities of whole cells producing mCherry proteins were determined with an SLM-8100 spectrofluorometer.
Supplementary file pone.0149659.s003.tiff: S3 Fig IC50's for Hit Compound 181^JS. (A) The total cellular mCherry fluorescence (live cell assay; n = 1), (B) the in vitro NADH-dependent Tat transport efficiency of pre-SufI (n = 1), and (C) the maximum transmembrane electrical potential gradient (n = 1) were measured for a range of concentrations of compound 181^JS (S2E Fig). (D) SDS-PAGE gel showing in-gel fluorescence data used in (B). For (A), cells expressing spTorA-mCherry-SsrA were grown under Tat^++ conditions in a 384-well plate in the presence of 0, 0.08, 0.15, 0.3, 0.63, 1.25, 2.5, 5, 10, 20, or 40 μM compound 181^JS, as described for the HTS assay (see Methods). For (B) and (C), IMVs were incubated with the same concentrations of compound 181^JS prior to initiation of Tat transport and Δψ generation by the addition of NADH, as described previously. The red curves are best-fits using y = d + (100-d)/(1+(x/IC50)^b), where b is a slope factor and d is the high concentration asymptote. (TIFF) Click here for additional data file.

[3] = target: E. coli Tat machinery (IMVs containing overproduced TatABC) (Escherichia coli, UniProt P69423+P69425+P69428); assay type: biochemical; details: hit compound 100 μM
E. coli Tat machinery (IMVs containing overproduced TatABC) (Escherichia coli, UniProt P69423+P69425+P69428), sequence (P69423 2-258): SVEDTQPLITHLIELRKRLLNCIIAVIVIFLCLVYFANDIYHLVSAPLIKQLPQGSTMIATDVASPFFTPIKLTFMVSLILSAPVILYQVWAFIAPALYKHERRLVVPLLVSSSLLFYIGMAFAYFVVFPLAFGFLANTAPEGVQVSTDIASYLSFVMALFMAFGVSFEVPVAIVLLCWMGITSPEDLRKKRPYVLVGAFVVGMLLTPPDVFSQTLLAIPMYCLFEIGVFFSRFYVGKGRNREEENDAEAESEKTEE
E. coli Tat machinery (IMVs containing overproduced TatABC) (Escherichia coli, UniProt P69423+P69425+P69428), sequence (P69425 whole entry): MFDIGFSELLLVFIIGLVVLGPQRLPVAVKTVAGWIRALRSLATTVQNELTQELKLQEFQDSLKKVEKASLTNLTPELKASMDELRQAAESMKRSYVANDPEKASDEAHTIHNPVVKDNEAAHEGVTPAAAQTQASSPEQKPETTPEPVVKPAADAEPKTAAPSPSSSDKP
E. coli Tat machinery (IMVs containing overproduced TatABC) (Escherichia coli, UniProt P69423+P69425+P69428), sequence (P69428 whole entry): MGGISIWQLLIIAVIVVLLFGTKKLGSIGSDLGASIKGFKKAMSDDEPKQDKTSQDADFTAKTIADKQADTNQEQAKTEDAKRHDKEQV

SMILES | outcome of NADH-dependent in vitro Tat transport screen (survival = visible inhibition of Tat transport) [1] | number of assays in which Tat transport was inhibited [2] [times] | outcome of NADH-dependent in vitro Tat transport screen (survival = visible inhibition of Tat transport) [3]
Oc1cc(Cl)ccc1Oc1ccc(Cl)cc1Cl [Compound 18^NIH, 5-Chloro-2-(2,4-dichlorophenoxy)phenol] | survived | 12 | 
N#CC1c2ccccc2-n2nncc2CN1Cc1cc(Cl)cc(Cl)c1 (stereo not drawn) [21^NIH, 5-[(3,5-dichlorophenyl)methyl]-4,6-dihydrotriazolo[1,5-a][1, 4]benzodiazepine-6-carbonitrile] |  |  | survived

Source: paper PMC4764201, “High Throughput Screen for Escherichia coli Twin Arginine Translocation (Tat) Inhibitors” (PLoS ONE, 2016)
